Patent publication US12416002B2, “Analysis system for orthogonal access to and tagging of biomolecules in cellular compartments” (ILLUMINA, INC., priority 2016, dated 2025)

Assays:
[1] = system: Isolated nuclei; experiment: qPCR (Cq) of library yield, varying Pitstop-2 with Tn5 and TsTn5 transposases (Table 1B); format: cell-based, human
Description: (§1) One Cq value roughly corresponds to two fold difference in DNA Input. […]
Additional experiments were run using varying concentrations of Pitstop-2 and the Tn5 and TsTn5 transposases.

[2] = system: nuclei; experiment: Agarose gel of indexed, amplified libraries of transposed nuclear DNA (Example 6, FIG. 5); format: cell-based; details: Pitstop-2 0, 10, 30, 60 μM
Procedure: Genomic DNA transposed with Nextera Tn5 Kit in the presence of Pitstop-2 (at concentrations of 0, 10, 30, and 60 μM) as described above was released from nuclei and was captured onto indexed beads containing oligonucleotide capture sequences. Bead-captured DNA was further gap-fill ligated to covalently link both strands of genomic DNA to common sequences (including unique indices) and amplified by PCR. […] Band intensity increases correlated with increases in Pitsthop-2 concentration. Corresponding DNA fragments covered by distinct number of nucleosomes of resulted libraries contained “nucleosomal banding,” indicating successful ATAC-seq tagmentation at regions free of nucleosomes.

[3] = system: nuclei; experiment: Flow cytometry of bead capture of FAM-labeled transposed nuclear material (Table 2); format: cell-based
[4] = system: Mouse (3T3) nuclei; experiment: Single-cell ATAC-seq in droplets (Example 14, FIG. 11); format: cell-based
Procedure: Mouse (3T3) nuclei were treated with 0 μM, 30 μM, and 60 μM Pitstop-2 during cell lysis and transposition of nuclei. Pitstop-2 was used to open up nuclear pores and to allow increased transposition of open chromatin. A defined number of transposed nuclei set to ensure single nuclei occupancy was loaded into a QX200 Bio-Rad droplet generator with indexed beads designed to produce single-cell ATAC-seq libraries. Single cell libraries were PCR-amplified in droplets and then subjected to purification, and sequencing on a NextSeq® 550 Sequencing System.
Treatment of nuclei with Pitstop-2 allows more efficient transposition and increased unique coverage of open chromatin. In the presence of Pitstop-2, transposases target additional open chromatin regions outside of transcription start sites (TSS) (see FIG. 11B). […] Also observed were an alignment of pooled ATAC-seq reads generated with 0 μM, 30 μM, and 60 μM Pitstop-2 around GAPDH gene at chromosome 6 and an alignment of pooled ATAC-seq reads generated with 0 μM, 30 μM, and 60 μM Pitstop-2 around RPL10 gene at chromosome X (data not shown).

[5] = system: Isolated nuclei of K562 cells; experiment: Visualization of FAM-labeled transposome access to nuclei (Example 3, FIG. 3); format: cell-based, human; details: Pitstop-2 10 μM, 30 μM, 60 μM vs 2% DMSO control
Procedure: (§2) Using a standard cell culture protocol, 1×10^6 K562 cells (human lymphoma cell line) were collected from tissue culture flasks for tagmentation reaction. All cell pelleting/centrifugation steps were performed at 300×g for 3 min at 4° C. Freshly isolated cells were centrifuged and re-suspended in ice cold PBS (phosphate-buffered saline). The cells were pelleted again and incubated on ice while being suspended in 200 μL ice cold cell lysis buffer (Tris/NaCl/octylphenoxypolyethoxyethanol (IGEPAL CA-630 detergent)) for 5 min. Following this, nuclei were spun down for 3 min at 300×g, washed once with 200 of lysis buffer, and pelleted nuclei were transposed with Nextera Tn5 Transposase (TDE1) for 30 min at 55° C. in 1× Tagment DNA buffer (PN:15027866), supplemented with (a) Pitstop-2 in DMSO to yield 30 μM final Pitstop-2 concentration (test nuclei) or (b) 2% DMSO (control nuclei). Nuclei from each sample were pelleted and most of the supernatant was carefully removed.
The method of Example 1 was used to import FAM-labeled transposome complexes into nuclear compartments. Nuclei were isolated and treated as described in Example 1 using Nextera Tn5 transposase complexed with transposon sequence labeled during oligonucleotide synthesis at the 5′-end with FAM (6-FAM, Integrated DNA Technologies), and using the 2% DMSO control, and varying concentrations of Pitstop-2 (10 μM, 30 μM, and 60 μM).

[6] = system: unpurified nuclei; experiment: Yield of ATAC-seq library from unpurified nuclei (Example 8, Table 3); format: cell-based; details: for Yield (nM) 150-1000 bp: 3% DMSO
Procedure: The concentration of each library was determined on the BioAnalyzer between the library range of 150-1000 bps plotted for each Pitstop-2 concentration (FIG. 7A). Additional experiments run at varying Pitstop-2 concentrations (5, 10, 30, 50, 100, and 200 μM) produced enhanced library yield over libraries produced in the absence of Pitstop-2 as shown by spectrophotometric analysis (Table 3).

[7] = system: K562 (human lymphoma cell line) nuclear content; experiment: Sequencing of transposition (ATAC-seq) libraries from K562 nuclear content (Example 5, FIG. 4); format: cell-based
Description: DNA libraries were generated from K562 (human lymphoma cell line) nuclear content using methods as described in the preceding examples. […] As shown in FIG. 4A for the ATAC-seq profile over a portion of Chr 12, the libraries had targeted predominantly intergenic regions at all Pitstop-2 concentrations.

[8] = system: Isolated nuclei; experiment: qPCR (Cq) of library yield from nuclei transposed with Nextera Tn5 in presence of Pitstop-2 (Example 4, Table 1A); format: cell-based, human; details: for Cq-Pitstop-2: 50,000 nuclei, 25 cy qPCR
Procedure: as §2, with “([…])” for “(a) Pitstop-2 in DMSO to yield 30 μM final Pitstop-2 concentration (test nuclei)”, “([…]).” for “(b) 2% DMSO (control nuclei).”
as §1

[9] = system: nuclei of K562 cells; experiment: Reverse transcription/quantitative PCR of cDNA synthesis from nuclear mRNA (Example 9, Table 4); format: cell-based, human
Procedure: Pitstop-2 treatment increases RNA output by improving cDNA synthesis from nuclear mRNA. K562 cells were lysed with 0.1% NP40. The nuclei and cytoplasm were separated and the nuclei were washed twice, then a reverse transcription/quantitative PCR protocol was performed (ThermoFisher Maxima HT RT kit, Kapa qPCR kit, RPLPO PCR primer) with (a) no additive, (b) 0.1% SDS, or (c) 30 μM Pitstop-2. The deltaCt between no reverse transcription and reverse transcription was used as the metric to report relative cDNA synthesis efficiency. Pitstop-2 treatment boosted cDNA synthesis from nuclei 4-5 fold over untreated nuclei (Table 4).

## O=C1N=C(NS(=O)(=O)c2cccc3ccccc23)SC1=Cc1ccc(Br)cc1 [Pitstop-2, N-[5-(4-bromobenzylidene)-4-oxo-4,5-dihydro-1,3-thiazol-2-yl]naphthalene-1-sulfonamide]
[1]; Transposome Tn5, Pitstop 50 μM
  Cq: 22.21
[1]; Transposome Tn5, Pitstop 100 μM
  Cq: 23.17
[1]; Transposome Tn5, Pitstop 200 μM
  Cq: 23.105
[1]; Transposome Tn5, Pitstop 300 μM
  Cq: 23.67
[1]; Transposome TsTn5, Pitstop 50 μM
  Cq: 18.32
[1]; Transposome TsTn5, Pitstop 100 μM
  Cq: 18.52
[1]; Transposome TsTn5, Pitstop 200 μM
  Cq: 18.55
[1]; Transposome TsTn5, Pitstop 300 μM
  Cq: 19.475
[2]
  transposition yield by agarose gel electrophoresis: clear increase in transposition yield
[3]; Pitstop-2 10 μM
  Mean (MFU), bead capture: 1297 MFU
[3]; Pitstop-2 30 μM
  Mean (MFU), bead capture: 1439 MFU
[3]; Pitstop-2 60 μM
  Mean (MFU), bead capture: 1488 MFU
[3]; Pitstop-2 treatment vs control pools
  bead capture rates of FAM-labeled transposed libraries: enhanced bead capture rates over control pools
[4]; 0, 30, 60 μM Pitstop-2, FIG. 11C
  ATAC-seq peak overlap (MACS-2), integrity of the assay: did not change the overall integrity of the assay
[4]; increasing Pitstop-2 (0, 30, 60 μM), barcodes >1 k, >10 k, >100 k unique reads, FIG. 11A
  total number of unique reads: increase in the total number of unique reads
[5]
  influx of FAM-labeled transposomes into nuclei: increased influx of FAM-labeled transposomes into the nuclear space
[6]; Pitstop-2 5 μM
  Yield (nM) 150-1000 bp: 7.3 nM
[6]; Pitstop-2 10 μM
  Yield (nM) 150-1000 bp: 9.3 nM
[6]; Pitstop-2 20 μM
  Yield (nM) 150-1000 bp: 20.6 nM
[6]; Pitstop-2 50 μM
  Yield (nM) 150-1000 bp: 23.7 nM
[6]; Pitstop-2 100 μM
  Yield (nM) 150-1000 bp: 15.7 nM
[6]; Pitstop-2 200 μM
  Yield (nM) 150-1000 bp: 8.7 nM
[6]; Pitstop-2 10 and 100 μM, FIG. 7A
  yield of ATAC-seq library on BioAnalyzer: increased the yield of an ATAC-seq library
[7]; 30 and 60 μM Pitstop-2, FIG. 4C
  ATAC-seq profile, normalized coverage over promoter and coding regions: improved the ATAC-seq profile over controls
[7]; Pitstop-2-treated samples over controls, FIG. 4B
  diversity and uniqueness of whole genome sequencing coverage: better diversity and uniqueness
[7]; Pitstop-2 treatment
  access to chromatin regions (sequenced libraries): enhanced access to transposase-accessible intergenic and open chromatin regions
[8]; Pitstop-2 0 to 80 uM
  library yield from intact nuclei vs untreated control: increases library yield compared to the untreated control
[8]; Pitstop-2 5 uM vs 0.05% DMSO control
  ΔCq-Pitstop-2 vs. Control: −0.2
[8]; Pitstop-2 5 uM
  Cq-Pitstop-2: 19.91
[8]; Pitstop-2 10 uM vs 0.10% DMSO control
  ΔCq-Pitstop-2 vs. Control: −0.65
[8]; Pitstop-2 10 uM
  Cq-Pitstop-2: 20.00
[8]; Pitstop-2 20 uM vs 0.20% DMSO control
  ΔCq-Pitstop-2 vs. Control: −1.48
[8]; Pitstop-2 20 uM
  Cq-Pitstop-2: 19.36
[8]; Pitstop-2 40 uM vs 0.40% DMSO control
  ΔCq-Pitstop-2 vs. Control: −1.26
[8]; Pitstop-2 40 uM
  Cq-Pitstop-2: 19.94
[8]; Pitstop-2 80 uM vs 0.80% DMSO control
  ΔCq-Pitstop-2 vs. Control: −2.06
[8]; Pitstop-2 80 uM
  Cq-Pitstop-2: 19.24
[9]; 30 μM Pitstop-2
  boost of cDNA synthesis from nuclei over untreated nuclei: 4-5 fold
[9]; Nuclei +30 μM Pitstop-2
  DeltaCt (no reverse transcription vs reverse transcription; relative cDNA synthesis efficiency): 7.19

## CCCCCCCCCCCCOS(=O)(=O)[O-].[Na+] [SDS, sodium dodecyl sulfate]
[9]; Nuclei +0.1% SDS
  DeltaCt (no reverse transcription vs reverse transcription; relative cDNA synthesis efficiency): 2.47
